Test results reported in US20260068882A1, “ARTHROPOD CONTROLLING COMPOSITION” (Firmenich SA, priority 2019, published 2026).
Read-outs that look alike come from different tables or passages of the source.

Tests used:
Aedes aegypti = experiment: In vitro Warm Body assay, mosquitoes landing on treated warm body; assay type: in vivo
Method: (§1) The arthropod controlling effect according to the present invention is determined on mosquitoes using an adapted Warm Body assay as defined in Kröber T, Kessler S, Frei J, Bourquin M, Guerin P M. An in vitro assay for testing mosquito controlling compounds employing a warm body and carbon dioxide as a behavioral activator. J Am Mosq Control Assoc. 2010; 26:381-386.
(§2) The controlling effect according to the present invention is determined by testing the Warm Body assay against the yellow fever mosquito, Aedes aegypti Rockefeller strain. […] Observations of controlling efficacy were made on host-seeking females of uniform age, 5 to 10 days old selected as mentioned in the publication mentioned hereinabove. Tested hungry females had access to 10% sugar solution but were not blood-fed.
(§3) The published protocol has been adapted in not manually counting the landing mosquitoes but automatically using an automatic counting software, the switch from Anopheles gambiae to A. aegypti led to a decrease of mosquitoes' number placed in the tested cage due to the size difference (i.e. 30 mosquitoes instead of 50) and to an increase of lighting as A. aegypti is a diurnal mosquitoes (i.e. 150 lux instead of 4 lux).
as §2, with “A.” for “Aedes”
as §1, with “The” for “The arthropod”, “was assessed” for “is determined on mosquitoes”
as §3, with “Aedes” for “A.”
In this in-vitro assay the number of A. aegypti landing on a warm body treated with the tested stimuli was measured in order to assess the repellency effect. Three replicates were carried on the three different doses: 0.0016%, 0.04% and 1% in ethanol, using 25 A. aegypti 10-12 days old females per cage.
In this in-vitro assay, the number of Aedes aegypti landing on a warm body treated with the tested stimuli was measured in order to assess the repellency effect. Three replicates were carried on the three different doses: 0.0016%, 0.04% and 1% in ethanol.
In this in-vitro assay, the number of Aedes aegypti landing on a warm body treated with the tested stimuli was measured in order to assess the repellency effect. One replicate was carried at different doses ranging from 0.0016% up to 1% in ethanol.

Ixodes ricinus = experiment: In vitro Warm Plate Assay for ticks; assay type: in vivo; settings: for pest or weed control at 0.0016 % / pest or weed control at 0.04 % / pest or weed control at 1 % / pest or weed control at 0.00032 % / pest or weed control at 0.008 % / pest or weed control at 0.2 %: Ixodes ricinus, read-out: percentage of ticks affected on the Warm Plate; for pest or weed control at 0.00032 %: 0.00032% (Table 10); for pest or weed control at 0.008 %: 0.008% (Table 10); for pest or weed control at 0.2 %: 0.2% (Table 10)
Method: Repellent efficacy of the different compounds was assessed against the sheep tick, Ixodes ricinus. I. ricinus is one of the recommended model organisms mentioned by the Guidance on the European Biological Products Regulation [Vol II, Efficacy-Assessment & Evaluation (Parts B+C), v. 3.0, April 2018]. Observations of repellent efficacy were made on last stage nymphs.
The repellent efficacy was assessed using the protocol of the in-vitro Warm Plate Assay as defined in Kröber T, Bourquin M, Guerin P M. A standardized in vivo and in vitro test method for evaluating tick repellents. Pesticide Biochemistry and Physiology. 2013; 107 (2): 160-168.].
The mean±SD number of ticks Ixodes ricinus walking down (affected), falling (affected) or walking-up (non affected) from the warm plate treated with ethanol, N,N-diethyl-3-methylbenzamide, (2,5-dimethyl-2,3-dihydro-1H-inden-2yl)methanol (Ingredient 2) or (2,4,6-trimethyl-2,3-dihydro-1H-inden-2-yl)methanol (Ingredient 1) diluted in ethanol at 0.4 mg/ml and 10 mg/mL was assessed on n groups of 12 ticks (n=2-5).
In this in-vitro assay, the percentage of ticks Ixodes ricinus affected by the stimulus loaded on the warm plate was measured in order to assess the repellency effect. Twelve ticks were assessed per concentrations that goes from 0.0016% up to 1% in ethanol.
Using the same in-vitro setup, the effect on ticks behavior (n≥12) of different stimuli diluted in ethanol at 20% (w/w) was assessed overtime.

[1] = Aedes aegypti, read-out: decrease of landings

## Cc1ccc2c(c1)C(O)C(C)(CO)C2 (racemic) [2-(hydroxymethyl)-2,6-dimethyl-2,3-dihydro-1H-inden-1-ol]
Aedes aegypti; 0.0016%, 0.04% and 1% in ethanol (FIG. 10)
  repellent effect with increasing amount of stimuli (in words): low decrease of landing

## C[C@H]1O[C@@H]2c3ccccc3C[C@@H]2[C@@H](C)O1 (racemic) [(2RS,4RS,4ARS,9BSR)-2,4-dimethyl-4,4a,5,9b-tetrahydroindeno[1,2-d][1,3]dioxine]
Aedes aegypti; 0.0016% in ethanol (Table 6)
  number of mosquitoes landed on the Warm Body: 17
Aedes aegypti; 0.04% in ethanol (Table 6)
  number of mosquitoes landed on the Warm Body: 13

## C[C@@H]1O[C@H](C)[C@@H]2Cc3ccccc3[C@@H]2O1 (racemic) [(2RS,4RS,4ASR,9BRS)-2,4-dimethyl-4,4a,5,9b-tetrahydroindeno[1,2-d][1,3]dioxine]
Aedes aegypti; 0.0016% in ethanol (Table 6)
  number of mosquitoes landed on the Warm Body: 11
Aedes aegypti; 0.04% in ethanol (Table 6)
  number of mosquitoes landed on the Warm Body: 6
Aedes aegypti; 1% in ethanol (Table 6)
  number of mosquitoes landed on the Warm Body: 2

## C[C@@H]1OC[C@]2(C)Cc3ccccc3[C@@H]2O1 (racemic) [(2RS,4aSR,9bSR)-2,4a-dimethyl-4,4a,5,9b-tetrahydroindeno[1,2-d][1,3]dioxin]
Aedes aegypti; 0.0016% in ethanol (Table 6)
  number of mosquitoes landed on the Warm Body: 34
Aedes aegypti; 0.04% in ethanol (Table 6)
  number of mosquitoes landed on the Warm Body: 18
Aedes aegypti; 1% in ethanol (Table 6)
  number of mosquitoes landed on the Warm Body: 6

## Cc1ccc2c(c1)C[C@]1(C)COC(C)(C)O[C@H]21 (racemic) [(4aRS,9bRS)-2,2,4a,7-tetramethyl-4,4a,5,9b-tetrahydroindeno[1,2-d][1,3]dioxine]
Aedes aegypti; 0.0016% in ethanol (Table 6)
  number of mosquitoes landed on the Warm Body: 51
Aedes aegypti; 0.04% in ethanol (Table 6)
  number of mosquitoes landed on the Warm Body: 44
Aedes aegypti; 1% in ethanol (Table 6)
  number of mosquitoes landed on the Warm Body: 8

## Cc1ccc2c(c1)[C@H]1OC(C)(C)OC[C@@]1(C)C2 (racemic) [(4aRS,9bRS)-2,2,4a,8-tetramethyl-4,4a,5,9b-tetrahydroindeno[1,2-d][1,3]dioxine]
Aedes aegypti; 0.0016% in ethanol (Table 6)
  number of mosquitoes landed on the Warm Body: 59
Aedes aegypti; 0.04% in ethanol (Table 6)
  number of mosquitoes landed on the Warm Body: 12
Aedes aegypti; 1% in ethanol (Table 6)
  number of mosquitoes landed on the Warm Body: 11

## CC1(C)OC[C@@]2(C)Cc3ccccc3[C@H]2O1 (racemic) [(4aRS,9bRS)-2,2,4a-trimethyl-4,4a,5,9b-tetrahydroindeno[1,2-d][1,3]dioxine]
Aedes aegypti; 0.0016% in ethanol (Table 6)
  number of mosquitoes landed on the Warm Body: 42
Aedes aegypti; 0.04% in ethanol (Table 6)
  number of mosquitoes landed on the Warm Body: 47
Aedes aegypti; 1% in ethanol (Table 6)
  number of mosquitoes landed on the Warm Body: 2

## Cc1ccc2c(c1)C[C@]1(C)COCO[C@H]21 (racemic) [(4aRS,9bRS)-4a,7-dimethyl-4,4a,5,9b-tetrahydroindeno[1,2-d][1,3]dioxine]
Aedes aegypti; 0.0016% in ethanol (Table 6)
  number of mosquitoes landed on the Warm Body: 17

## Cc1ccc2c(c1)[C@H]1OCOC[C@@]1(C)C2 (racemic) [(4aRS,9bRS)-4a,8-dimethyl-4,4a,5,9b-tetrahydroindeno[1,2-d][1,3]dioxin]
Aedes aegypti; 0.0016% in ethanol (Table 6)
  number of mosquitoes landed on the Warm Body: 34
Aedes aegypti; 0.04% in ethanol (Table 6)
  number of mosquitoes landed on the Warm Body: 20
Aedes aegypti; 1% in ethanol (Table 6)
  number of mosquitoes landed on the Warm Body: 5

## CC1(C)OC[C@H]2Cc3ccccc3[C@H]2O1 (racemic) [(4aRS,9bSR)-2,2-dimethyl-4,4a,5,9b-tetrahydroindeno[1,2-d][1,3]dioxin]
Aedes aegypti; 0.0016% in ethanol (Table 6)
  number of mosquitoes landed on the Warm Body: 30
Aedes aegypti; 0.04% in ethanol (Table 6)
  number of mosquitoes landed on the Warm Body: 1
Aedes aegypti; 1% in ethanol (Table 6)
  number of mosquitoes landed on the Warm Body: 0

## COC(=O)C1(C)Cc2ccc(C)cc2C1 (racemic) [(+−)-methyl 2,5-dimethyl-2,3-dihydro-1H-indene-2-carboxylate]
Ixodes ricinus; 0.0016% (Table 11)
  pest or weed control at 0.0016 %: 7%
Ixodes ricinus; 0.04% (Table 11)
  pest or weed control at 0.04 %: 18%
Ixodes ricinus; 1% (Table 11)
  pest or weed control at 1 %: 100%

## Cc1ccc2c(c1)CC(C)(C(=O)O)C2 (stereo not shown) [2,5-dimethyl-2,3-dihydro-1H-indene-2-carboxylic acid]
Aedes aegypti; [1]
  pest or weed control at 0.0016 %: 4 to 29%

## COCOCC1(C)Cc2ccc(C)cc2C1 (stereo not shown) [2-((methoxymethoxy)methyl)-2,5-dimethyl-2,3-dihydro-1H-indene]
Ixodes ricinus
  pest or weed control at 0.00032 %: 0%
  pest or weed control at 0.008 %: 0%
  pest or weed control at 0.2 %: 54%
Ixodes ricinus; 0.0016% (Table 10)
  pest or weed control at 0.0016 %: 17%
Ixodes ricinus; 0.04% (Table 10)
  pest or weed control at 0.04 %: 33%
Ixodes ricinus; 1% (Table 10)
  pest or weed control at 1 %: 100%

## COC(C)OCC1(C)Cc2ccc(C)cc2C1 (stereo not shown) [2-[(1-methoxyethoxy)methyl]-2,5-dimethylindane]
Ixodes ricinus
  pest or weed control at 0.00032 %: 8%
  pest or weed control at 0.008 %: 21%
  pest or weed control at 0.2 %: 64%
Ixodes ricinus; 0.0016% (Table 10)
  pest or weed control at 0.0016 %: 0%
Ixodes ricinus; 0.04% (Table 10)
  pest or weed control at 0.04 %: 33%
Ixodes ricinus; 1% (Table 10)
  pest or weed control at 1 %: 100%

## Cc1ccc2c(c1)C1OC(=O)OCC1(C)C2 (stereo not shown) [4a,8-dimethyl-indano[1,2-d]-1,3-dioxan-2-one]
Aedes aegypti; 0.04% in ethanol (FIG. 8)
  decrease of landings: ~70%

## CC(C)(C)c1ccc2c(c1)CC1(COC1)C2 [5-(tert-butyl)-1,3-dihydrospiro[indene-2,3′-oxetane]]
Ixodes ricinus; 0.0016% (Table 11)
  pest or weed control at 0.0016 %: 0%
Ixodes ricinus; 0.04% (Table 11)
  pest or weed control at 0.04 %: 17%
Ixodes ricinus; 1% (Table 11)
  pest or weed control at 1 %: 86%

## CCc1ccc2c(c1)CC(C)(CO)C2 (stereo not shown) [5-ethyl-2-methyl-2-indanmethanol]
Aedes aegypti; [1]
  pest or weed control at 0.04 %: ~70%

## Cc1cc2c(cc1C)CC(C)(CO)C2 [(2,5,6-trimethyl-2,3-dihydro-1H-inden-2-yl)methanol]
Ixodes ricinus; 0.0016% (Table 11)
  pest or weed control at 0.0016 %: 17%
Ixodes ricinus; 0.04% (Table 11)
  pest or weed control at 0.04 %: 38%
Ixodes ricinus; 1% (Table 11)
  pest or weed control at 1 %: 77%

## CC(=O)OCC1(C)Cc2ccccc2C1 [(2-methyl-2,3-dihydro-1H-inden-2-yl)methyl acetate]
Ixodes ricinus; 0.04% (Table 10)
  pest or weed control at 0.04 %: 25%
Ixodes ricinus
  pest or weed control at 0.2 %: 58%
Ixodes ricinus; 1% (Table 10)
  pest or weed control at 1 %: 100%

## Cc1ccc2c(c1)[C@@H]1O[C@H](C)OC[C@]1(C)C2 [(2R,4aS,9bS)-2,4a,8-trimethyl-4,4a,5,9b-tetrahydroindeno[1,2-d][1,3]dioxin]
Aedes aegypti; 0.0016% in ethanol (Table 6)
  number of mosquitoes landed on the Warm Body: 40
Aedes aegypti; 0.04% in ethanol (Table 6)
  number of mosquitoes landed on the Warm Body: 8
Aedes aegypti; 1% in ethanol (Table 6)
  number of mosquitoes landed on the Warm Body: 10

## CC1OC(C)C2Cc3ccccc3C2O1 (stereo not shown) [ingredient #5, 2,4-dimethyl-4,4a,5,9b-tetrahydroindeno[1,2-d][1,3]dioxine]
Ixodes ricinus; 0.00032% (Table 9)
  percentage of ticks being affected: 0%
Ixodes ricinus; 0.00071% (Table 9)
  percentage of ticks being affected: 0%
Ixodes ricinus; 0.0016% (Table 9)
  percentage of ticks being affected: 17%
Ixodes ricinus; 0.00357% (Table 9)
  percentage of ticks being affected: 0%
Ixodes ricinus; 0.0053% (Table 9)
  percentage of ticks being affected: 0%
Ixodes ricinus; 0.008% (Table 9)
  percentage of ticks being affected: 0%
Ixodes ricinus; 0.0119% (Table 9)
  percentage of ticks being affected: 0%
Ixodes ricinus; 0.0178% (Table 9)
  percentage of ticks being affected: 8%
Ixodes ricinus; 0.0267% (Table 9)
  percentage of ticks being affected: 0%
Ixodes ricinus; 0.04% (Table 9)
  percentage of ticks being affected: 15%
Ixodes ricinus; 0.0598% (Table 9)
  percentage of ticks being affected: 0%
Ixodes ricinus; 0.089% (Table 9)
  percentage of ticks being affected: 7%
Ixodes ricinus; 0.2% (Table 9)
  percentage of ticks being affected: 38%
Ixodes ricinus; 0.447% (Table 9)
  percentage of ticks being affected: 71%
Ixodes ricinus; 1% (Table 9)
  percentage of ticks being affected: 62%

## (2,5-dimethyl-2-indanyl)methyl formate)methanol
Ixodes ricinus; 0.0016% (Table 11)
  percentage of ticks affected on the Warm Plate: 0%
Ixodes ricinus; 0.04% (Table 11)
  percentage of ticks affected on the Warm Plate: 15%
Ixodes ricinus; 1% (Table 11)
  percentage of ticks affected on the Warm Plate: 100%
